Data taken from patent publication US20250213701A1, “MEDICAMENT FOR TREATING HUMAN TUMOR BASED ON ERF3A-TARGETING PROTEOLYSIS MECHANISM” (SUZHOU DEGEN BIO-MEDICAL CO., LTD., priority 2022, published 2025).

Legend:
Format in all cases: cell-based, human
[1] = system: PC-3 cells; test: Anti-proliferative toxicity against prostate cancer cell line PC-3 (CCK8); conditions: Homo sapiens, 72 h, 3 days
Protocol: (§1) Example 82: Detection of Anti-Proliferative Toxicity Against Prostate Cancer Cell Lines Vcap, 22Rv1, and PC-3
PC-3 cells (purchased from the Cell Bank of the Chinese Academy of Sciences, Cat. No. SCSP-532) were subcultured in a culture medium (F12K medium+1% penicillin-streptomycin dual-antibiotic solution+10% fetal bovine serum) in an incubator at 5% carbon dioxide and 37° C.
PC-3 cells were seeded at 4000 cells/well (90 μL) on a 96-well plate and cultured for 24 h.
(§2) 10 mM compound stock solutions were prepared in DMSO.
(§3) For 22Rv1 cells and PC-3 cells, the compound stock solution was diluted with DMSO to give DMSO solutions 11-19 at concentrations of 0 μM, 500 μM, 100 μM, 20 μM, 4 μM, 0.8 μM, 0.16 μM, 0.032 μM, 0.0064 μM.
For PC-3 cells, 2 μL of each of the above solutions 11-19 was added to 98 μL of PC-3 medium to give mixed solutions 39-47 of the compound and the medium.
(§4) For 22Rv1 and PC-3 cells, 10 μL of each of the above solutions 30-38 or 39-47 was added to the above cell seed solution to give a total volume of 100 μL (90 μL+10 μL), where the concentrations of the compound in wells were 0 μM, 1.0 μM, 0.2 μM, 0.04 μM, 0.008 μM, 0.0016 μM, 0.00032 μM, 0.00006 μM, and 0.00001 μM. All concentrations were in triplicate.
(§5) After the above-treated cells were cultured for 3 days, 10 μL of the CCK8 solution (DOJINDO, Cat. No. PF725) was added to each well. The plate was incubated in an incubator at 37° C. for 1-4 h and then detected on a microplate reader for the reading at 450 nm.

[2] = system: 22Rv1 cells; test: Anti-proliferative toxicity against prostate cancer cell line 22Rv1 (CCK8); conditions: Homo sapiens, 72 h, 3 days, CCK8
Protocol: as §1
(§6) Vcap cells (purchased from the Cell Bank of the Chinese Academy of Sciences, Cat. No. SCSP-5034) were subcultured in a culture medium (DMEM medium+1% penicillin-streptomycin dual-antibiotic solution+10% fetal bovine serum) in an incubator at 5% carbon dioxide and 37° C. 22Rv1 cells (purchased from the Cell Bank of the Chinese Academy of Sciences, Cat. No. TCHu100) were subcultured in a culture medium (RPMI-1640 medium+1% penicillin-streptomycin dual-antibiotic solution+10% fetal bovine serum) in an incubator at 5% carbon dioxide and 37° C.
22Rv1 cells were seeded at 5000 cells/well (90 μL) on a 96-well plate and cultured for 48 h.
as §2, §3
For 22Rv1 cells, 2 μL of each of the above solutions 11-19 was added to 98 μL of 22Rv1 medium to give mixed solutions 30-38 of the compound and the medium.
as §4, §5

[3] = system: VCaP cells; test: Anti-proliferative toxicity against prostate cancer cell line Vcap (CCK8); conditions: Homo sapiens, 72 h, 3 days, CCK8
Protocol: as §1, §6
VCap cells were seeded at 20000 cells/well (90 μL) on a 96-well plate and cultured for 72 h. The original medium was removed, and a new medium of 90 μL was added.
as §2
For VCap cells, the compound stock solution was diluted with DMSO to give DMSO solutions 1-10 at concentrations of 0 μM, 80 μM, 16 μM, 3.2 μM, 1.5 μM, 0.5 μM, 0.15 μM, 0.05 μM, 0.025 μM, and 0.0005 μM.
For Vcap cells, 2 μL of each of the above solutions 1-10 was added to 98 μL of Vcap medium to give mixed solutions 20-29 of the compound and the medium.
For Vcap cells, 10 μL of each of the above solutions 20-29 was added to the above cell seed solution to give a total volume of 100 μL (90 μL+10 μL), where the concentrations of the compound in wells were 0 μM, 0.16 μM, 0.032 μM, 0.006 μM, 0.003 μM, 0.001 μM, 0.0003 μM, 0.0001 μM, 0.00005 μM, and 0.00001 μM. All concentrations were in triplicate.
as §5

Measured: IC50

C[C@]12C=CC(=O)N[C@@H]1CC[C@@H]1[C@@H]2CC[C@]2(C)[C@@H](C(=O)NCCNc3cccc4c3C(=O)N(C3CCC(=O)NC3=O)C4=O)CC[C@@H]12 (stereo partly drawn) [C1, N-(2-((4-(2-(3-(2,6-dioxopiperidine))-isoindole-1,3-dione))amino)ethyl)-3-oxo-4-aza-5α-androst-1-ene-17β-carboxamide]
> 1000 nM: all assays above

C[C@]12C=CC(=O)N[C@@H]1CC[C@@H]1[C@@H]2CC[C@]2(C)[C@@H](C(=O)NCCNc3ccc4c(c3)C(=O)N(C3CCC(=O)NC3=O)C4=O)CC[C@@H]12 (stereo partly drawn) [C2, N-(2-((5-(2-(3-(2,6-dioxopiperidine))-isoindole-1,3-dione))amino)ethyl)-3-oxo-4-aza-5α-androst-1-ene-17β-carboxamide]
> 1000 nM: all assays above

C[C@]12C=CC(=O)N[C@@H]1CC[C@@H]1[C@@H]2CC[C@]2(C)[C@@H](C(=O)NCCCNc3cccc4c3C(=O)N(C3CCC(=O)NC3=O)C4=O)CC[C@@H]12 (stereo partly drawn) [C3, N-(3-((4-(2-(3-(2,6-dioxopiperidine))-isoindole-1,3-dione))amino)propyl)-3-oxo-4-aza-5α-androst-1-ene-17β-carboxamide]
> 1000 nM: all assays above

C[C@]12C=CC(=O)N[C@@H]1CC[C@@H]1[C@@H]2CC[C@]2(C)[C@@H](C(=O)NCCCNc3ccc4c(c3)C(=O)N(C3CCC(=O)NC3=O)C4=O)CC[C@@H]12 (stereo partly drawn) [C4, N-(3-((5-(2-(3-(2,6-dioxopiperidine))-isoindole-1,3-dione))amino)propyl)-3-oxo-4-aza-5α-androst-1-ene-17β-carboxamide]
> 1000 nM: all assays above

C[C@]12C=CC(=O)N[C@@H]1CC[C@@H]1[C@@H]2CC[C@]2(C)[C@@H](C(=O)NCCCCNc3cccc4c3C(=O)N(C3CCC(=O)NC3=O)C4=O)CC[C@@H]12 (stereo partly drawn) [C5, N-(4-((4-(2-(3-(2,6-dioxopiperidine))-isoindole-1,3-dione))amino)butyl)-3-oxo-4-aza-5α-androst-1-ene-17β-carboxamide]
> 1000 nM: all assays above

C[C@]12C=CC(=O)N[C@@H]1CC[C@@H]1[C@@H]2CC[C@]2(C)[C@@H](C(=O)NCCCCNc3ccc4c(c3)C(=O)N(C3CCC(=O)NC3=O)C4=O)CC[C@@H]12 (stereo partly drawn) [C6, N-(4-((5-(2-(3-(2,6-dioxopiperidine))-isoindole-1,3-dione))amino)butyl)-3-oxo-4-aza-5α-androst-1-ene-17β-carboxamide]
> 1000 nM: all assays above

C[C@]12C=CC(=O)N[C@@H]1CC[C@@H]1[C@@H]2CC[C@]2(C)[C@@H](C(=O)NCCCCCNc3cccc4c3C(=O)N(C3CCC(=O)NC3=O)C4=O)CC[C@@H]12 (stereo partly drawn) [C7, N-(5-((4-(2-(3-(2,6-dioxopiperidine))-isoindole-1,3-dione))amino)pentyl)-3-oxo-4-aza-5α-androst-1-ene-17β-carboxamide]
> 1000 nM: all assays above

C[C@]12C=CC(=O)N[C@@H]1CC[C@@H]1[C@@H]2CC[C@]2(C)[C@@H](C(=O)NCCCCCNc3ccc4c(c3)C(=O)N(C3CCC(=O)NC3=O)C4=O)CC[C@@H]12 (stereo partly drawn) [C8, N-(5-((5-(2-(3-(2,6-dioxopiperidine))-isoindole-1,3-dione))amino)pentyl)-3-oxo-4-aza-5α-androst-1-ene-17β-carboxamide]
> 1000 nM: all assays above

C[C@]12C=CC(=O)N[C@@H]1CC[C@@H]1[C@@H]2CC[C@]2(C)[C@@H](C(=O)NCCCCCCNc3cccc4c3C(=O)N(C3CCC(=O)NC3=O)C4=O)CC[C@@H]12 (stereo partly drawn) [C9, N-(6-((4-(2-(3-(2,6-dioxopiperidine))-isoindole-1,3-dione))amino)hexyl)-3-oxo-4-aza-5α-androst-1-ene-17β-carboxamide]
> 1000 nM: all assays above

C[C@]12C=CC(=O)N[C@@H]1CC[C@@H]1[C@@H]2CC[C@]2(C)[C@@H](C(=O)NCCCCCCNc3ccc4c(c3)C(=O)N(C3CCC(=O)NC3=O)C4=O)CC[C@@H]12 (stereo partly drawn) [C10, N-(6-((5-(2-(3-(2,6-dioxopiperidine))-isoindole-1,3-dione))amino)hexyl)-3-oxo-4-aza-5α-androst-1-ene-17β-carboxamide]
> 1000 nM: all assays above

C[C@]12C=CC(=O)N[C@@H]1CC[C@@H]1[C@@H]2CC[C@]2(C)[C@@H](C(=O)NCCCCCCCNc3cccc4c3C(=O)N(C3CCC(=O)NC3=O)C4=O)CC[C@@H]12 (stereo partly drawn) [C11, N-(7-((4-(2-(3-(2,6-dioxopiperidine))-isoindole-1,3-dione))amino)heptyl)-3-oxo-4-aza-5α-androst-1-ene-17β-carboxamide]
> 1000 nM: all assays above

C[C@]12C=CC(=O)N[C@@H]1CC[C@@H]1[C@@H]2CC[C@]2(C)[C@@H](C(=O)NCCCCCCCNc3ccc4c(c3)C(=O)N(C3CCC(=O)NC3=O)C4=O)CC[C@@H]12 (stereo partly drawn) [C12, N-(7-((5-(2-(3-(2,6-dioxopiperidine))-isoindole-1,3-dione))amino)heptyl)-3-oxo-4-aza-5α-androst-1-ene-17β-carboxamide]
> 1000 nM: all assays above

C[C@]12C=CC(=O)N[C@@H]1CC[C@@H]1[C@@H]2CC[C@]2(C)[C@@H](C(=O)N3CCC(CN4CCN(c5cccc6c5C(=O)N(C5CCC(=O)NC5=O)C6=O)CC4)CC3)CC[C@@H]12 (stereo partly drawn) [C13, 1-(4-(2-(3-(2,6-dioxopiperidine))-isoindole-1,3-dione))-4-(4-(1-(3-oxo-4-aza-5α-androst-1-ene-17β-formyl)piperidine)methyl)-piperazine]
> 1000 nM: all assays above

C[C@]12C=CC(=O)N[C@@H]1CC[C@@H]1[C@@H]2CC[C@]2(C)[C@@H](C(=O)N3CCC(CN4CCN(c5ccc6c(c5)C(=O)N(C5CCC(=O)NC5=O)C6=O)CC4)CC3)CC[C@@H]12 (stereo partly drawn) [C14, 1-(5-(2-(3-(2,6-dioxopiperidine))-isoindole-1,3-dione))-4-(4-(1-(3-oxo-4-aza-5α-androst-1-ene-17β-formyl)piperidine)methyl)-piperazine]
> 1000 nM: all assays above
